Experimental findings from patent US7595401B2, “Therapeutic compounds and their use in cancer” (Myriad Pharmaceuticals, Inc., priority 2006, dated 2009) are described below.

As usually defined, the % Inhibition is the change of the read-out against control, counted positive when it falls. Read a high % Inhibition as strong suppression. Broadly, the IC50 is the point on the concentration scale where inhibition reaches its midpoint. A high value points to a need for much substance.

The first assay deals with purified human Hsp90. Kind of assay: Binding Assay: fluorescence polarization with BODIPY-labeled geldanamycin. The conditions noted are these: 5 μM compound, BODIPY-GM 10 nM, Hsp90 30 nM. The method, boiled down: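 Fluorescence polarization competition with BODIPY-geldanamycin (10 nM final) and human Hsp90 (30 nM final) in HEPES-KOH pH 7.3 buffer with molybdate, NP-40, DTT; 2% DMSO, overnight at room temperature. Read 485/530 nm; percent inhibition from mP normalized to DMSO controls, fluorescent-compound points excluded.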
As to `COc1ccc(OC)c(Sc2nc3c(N)ncn(CCc4ccc(NC(=O)OC(C)(C)C)cc4)c-3n2)c1` [Example 215, (4-{2-[6-amino-8-(2,5-dimethoxy-phenylsulfanyl)-purin-3-yl]-ethyl}-phenyl)-carbamic acid tert-butyl ester], the “% Inhibition at 5 μM Compound Concentration” value is given as 0%.
On the same count and under the same terms, as for `COc1ccc(OC)c(Sc2nc3c(N)ncnc3n2CCc2ccc(N)cc2)c1` [Example 216, 9-[2-(4-Amino-phenyl)-ethyl]-8-(2,5-dimethoxy-phenylsulfanyl)-9H-purin-6-ylamine], the figure is 78%; as for `Nc1ncn(CC(c2ccccc2)C2CCCCC2)c2nc(Sc3cc4c(cc3Br)OCO4)nc1-2` (centres unmarked) [Example 227, 8-[(6-Bromo-1,3-benzodioxol-5-yl)thio]-3-(2-cyclohexyl-2-phenylethyl)-3H-purin-6-amine], 0%; as for `Nc1ncn(CCc2ccccc2)c2nc(Sc3cc(OC(F)(F)F)ccc3Cl)nc1-2` [Example 229, 8-{[2-Chloro-5-(trifluoromethoxy)phenyl]thio}-3-(2-phenylethyl)-3H-purin-6-amine], 24%.
With `Nc1ncn(CCc2ccccc2Cl)c2nc(Sc3cc4c(cc3Br)OCCO4)nc1-2` [Example 234, 8-[(7-Bromo-2,3-dihydro-1,4-benzodioxin-6-yl)thio]-3-[2-(2-chlorophenyl)ethyl]-3H-purin-6-amine], the “% Inhibition at 5 μM Compound Concentration” value was determined as 0%.
Same read-out and setting: under `COc1ccc(OC)c(Sc2nc3c(N)ncn(C4Cc5ccccc5C4O)c-3n2)c1` (centres unmarked) [Example 236, 2-{6-Amino-8-[(2,5-dimethoxyphenyl)thio]-3H-purin-3-yl}indan-1-ol] stands 0%; under `COc1ccc(Sc2nc3c(N)ncn(CCc4ccccc4)c-3n2)cc1Cl` [Example 241, 8-[(3-Chloro-4-methoxyphenyl)thio]-3-(2-phenylethyl)-3H-purin-6-amine], 0%; under `COc1ccc(OC)c(Sc2nc3c(N)ncnc3n2CCC2(F)C(F)(F)C(F)(F)C(F)(F)C(F)(F)C2(F)F)c1` [Example 245, 8-[(2,5-Dimethoxyphenyl)thio]-9-[2-(undecafluorocyclohexyl)ethyl]-9H-purin-6-amine], 1%.

The same assay, now with this note: BODIPY-GM 10 nM, Hsp90 30 nM.
Take `COc1ccc(OC)c(Sc2nc3c(N)ncnc3n2CCc2ccc(N)cc2)c1` [Example 216, 9-[2-(4-Amino-phenyl)-ethyl]-8-(2,5-dimethoxy-phenylsulfanyl)-9H-purin-6-ylamine]: the IC50 was greater than 8000 nM.
`COc1ccc(OC)c(Sc2nc3c(N)ncnc3n2CCc2cccc(OC(F)(F)F)c2)c1` [Example 217, 8-(2,5-Dimethoxy-phenylsulfanyl)-9-[2-(3-trifluoromethoxy-phenyl)-ethyl]-9H-purin-6-ylamine]: the IC50 is greater than 10000 nM.
Still for that read-out and setting: as for `COc1ccc(OC)c(Sc2nc3c(N)ncnc3n2CCc2c(F)c(F)c(F)c(F)c2F)c1` [Example 218, 8-(2,5-Dimethoxy-phenylsulfanyl)-9-(2-pentafluorophenyl-ethyl)-9H-purin-6-ylamine], the figure is greater than 3000 nM; as for `COc1ccc(OC)c(Sc2nc3c(N)ncnc3n2CCc2cc(C(F)(F)F)cc(C(F)(F)F)c2)c1` [Example 219, 9-[2-(3,5-Bistrifluoromethyl-phenyl)-ethyl]-8-(2,5-dimethoxy-phenylsulfanyl)-9H-purin-6-ylamine], greater than 8000 nM; as for `Nc1ncnc2c1nc(Sc1cc3c(cc1Br)OCO3)n2CC1(c2ccc(Cl)cc2)CC1` [Example 221, 8-(6-Bromo-benzo[1,3]dioxol-5-ylsulfanyl)-9-[1-(4-chloro-phenyl)-cyclopropylmethyl]-9H-purin-6-ylamine], greater than 9000 nM.
Same read-out and setting: as for `COc1ccc(OC)c(Sc2nc3c(N)ncnc3n2CCc2cccc([N+](=O)[O-])c2)c1` [Example 223, 8-(2,5-Dimethoxy-phenylsulfanyl)-9-[2-(3-nitro-phenyl)-ethyl]-9H-purin-6-ylamine], the figure is 500 nM.
Same read-out and setting: under `O=c1[nH]cnc2c1nc(Sc1ccc3c(c1)OCO3)n2CCc1ccccc1` [Example 224, 8-(Benzo[1,3]dioxol-5-ylsulfanyl)-9-phenethyl-1,9-dihydro-purin-6-one] stands greater than 5000 nM.
Molecule `Nc1ncnc2c1nc(Sc1cc3c(cc1Br)OCO3)n2CC(c1ccccc1)C1CCCCC1` (centres unmarked) [Example 226, 8-[(6-Bromo-1,3-benzodioxol-5-yl)thio]-9-(2-cyclohexyl-2-phenylethyl)-9H-purin-6-amine] had an IC50 greater than 25000 nM.
For `Nc1ncnc2c1nc(Sc1cc(OC(F)(F)F)ccc1Cl)n2CCc1ccccc1` [Example 228, 8-{[2-Chloro-5-(trifluoromethoxy)phenyl]thio}-9-(2-phenylethyl)-9H-purin-6-amine], the IC50 is greater than 8000 nM.
For `COc1ccc(OC)c(Sc2nc3c(N)nc(F)nc3n2CCc2ccccc2)c1` [Example 230, 8-[(2,5-Dimethoxyphenyl)thio]-2-fluoro-9-(2-phenylethyl)-9H-purin-6-amine], the IC50 is 210 nM.
Still for that read-out and setting: under `COc1ccc(OC)c(Sc2nc3c(N)ncnc3n2CCc2ccccc2O)c1` [Example 231, 2-(2-{6-Amino-8-[(2,5-dimethoxyphenyl)thio]-9H-purin-9-yl}ethyl)phenol] stands greater than 25000 nM; under `Nc1ncnc2c1nc(Sc1cc3c(cc1Br)OCCO3)n2CCc1ccccc1Cl` [Example 233, 8-[(7-Bromo-2,3-dihydro-1,4-benzodioxin-6-yl)thio]-9-[2-(2-chlorophenyl)ethyl]-9H-purin-6-amine], 500 nM; under `COc1ccc(OC)c(Sc2nc3c(N)ncnc3n2C2Cc3ccccc3C2O)c1` (centres unmarked) [Example 235, 2-{6-Amino-8-[(2,5-dimethoxyphenyl)thio]-9H-purin-9-yl}indan-1-ol], greater than 8000 nM.
Same read-out and setting: as for `COc1cc(Sc2nc3c(N)nc(F)nc3n2CCc2ccccc2Cl)cc(OC)c1OC` [Example 237, 9-[2-(2-Chlorophenyl)ethyl]-2-fluoro-8-[(3,4,5-trimethoxyphenyl)thio]-9H-purin-6-amine], the figure is greater than 25000 nM.
The same measure, in the same setting: under `COc1cc(Sc2nc3c(N)nc(F)nc3n2CCc2c(Cl)cccc2Cl)c(Cl)c(OC)c1OC` [Example 239, 8-[(2-Chloro-3,4,5-trimethoxyphenyl)thio]-9-[2-(2,6-dichlorophenyl)ethyl]-2-fluoro-9H-purin-6-amine] stands greater than 25000 nM.
As to `Nc1ncnc2c1nc(Sc1cc3c(cc1Br)OCO3)n2CCC1(F)C(F)(F)C(F)(F)C(F)(F)C(F)(F)C1(F)F` [Example 243, 8-[(6-Bromo-1,3-benzodioxol-5-yl)thio]-9-[2-(undecafluorocyclohexyl)ethyl]-9H-purin-6-amine], the IC50 is greater than 1000 nM.
On the same count and under the same terms, under `COc1ccc(CCn2c(Sc3cc(OC)ccc3OC)nc3c(N)ncnc32)cc1` [Example 247, 8-[(2,5-Dimethoxyphenyl)thio]-9-[2-(4-methoxyphenyl)ethyl]-9H-purin-6-amine] stands 3000 nM.
Same read-out and setting: under `COc1ccc(OC)c(Sc2nc3c(N)ncnc3n2CCc2ccc(Cl)cc2)c1` [Example 248, 9-[2-(4-Chlorophenyl)ethyl]-8-[(2,5-dimethoxyphenyl)thio]-9H-purin-6-amine] stands greater than 5000 nM; under `Nc1ncnc2c1nc(Sc1cc3c(cc1Br)OCO3)n2CCc1ccc(F)cc1` [Example 249, 8-[(6-Bromo-1,3-benzodioxol-5-yl)thio]-9-[2-(4-fluorophenyl)ethyl]-9H-purin-6-amine], 100 nM.
Same read-out and setting: under `COc1ccc(CCn2c(Sc3cc4c(cc3Br)OCO4)nc3c(N)ncnc32)cc1` [Example 250, 8-[(6-Bromo-1,3-benzodioxol-5-yl)thio]-9-[2-(4-methoxyphenyl)ethyl]-9H-purin-6-amine] stands 900 nM; under `COc1ccc(OC)c(Sc2nc3c(N)ncnc3n2CCc2c(Cl)cccc2Cl)c1` [Example 251, 9-[2-(2,6-Dichlorophenyl)ethyl]-8-[(2,5-dimethoxyphenyl)thio]-9H-purin-6-amine], 75 nM; under `Nc1ncnc2c1nc(Sc1cccc(OC(F)F)c1)n2CCc1ccccc1` [Example 252, 8-{[3-(Difluoromethoxy)phenyl]thio}-9-(2-phenylethyl)-9H-purin-6-amine], greater than 25000 nM.
In turn, `Nc1ncnc2c1nc(Sc1cccc(OC(F)F)c1)n2CCc1c(Cl)cccc1Cl` [Example 253, 9-[2-(2,6-Dichlorophenyl)ethyl]-8-{[3-(difluoromethoxy)phenyl]thio}-9H-purin-6-amine] registered an IC50 greater than 8000 nM.
On the same count and under the same terms, under `Nc1ncnc2c1nc(Sc1cccc(OC(F)F)c1)n2CCc1c(F)cccc1Cl` [Example 254, 9-[2-(2-Chloro-6-fluorophenyl)ethyl]-8-{[3-(difluoromethoxy)phenyl]thio}-9H-purin-6-amine] stands greater than 8000 nM; under `COc1cc(Sc2nc3c(N)ncnc3n2CCc2c(Cl)cccc2Cl)c(OC)cc1Cl` [Example 255, 8-[(4-Chloro-2,5-dimethoxyphenyl)thio]-9-[2-(2,6-dichlorophenyl)ethyl]-9H-purin-6-amine], 250 nM; under `COc1cc(Sc2nc3c(N)ncnc3n2CCc2c(F)cccc2Cl)c(OC)cc1Cl` [Example 256, 8-[(4-Chloro-2,5-dimethoxyphenyl)thio]-9-[2-(2-chloro-6-fluorophenyl)ethyl]-9H-purin-6-amine], 470 nM.
The same measure, in the same setting: under `COc1cc(Sc2nc3c(N)ncnc3n2CCc2ccccc2)c(OC)cc1Cl` [Example 257, 8-[(4-Chloro-2,5-dimethoxyphenyl)thio]-9-(2-phenylethyl)-9H-purin-6-amine] stands greater than 25000 nM; under `Nc1ncnc2c1nc(Sc1cccc(OC(F)F)c1)n2CCc1ccccc1Cl` [Example 258, 9-[2-(2-Chlorophenyl)ethyl]-8-{[3-(difluoromethoxy)phenyl]thio}-9H-purin-6-amine], greater than 25000 nM.
In the case of `Nc1ncnc2c1nc(Sc1cc(Cl)c(Cl)cc1Cl)n2CCc1ccccc1` [Example 259, 9-(2-Phenylethyl)-8-[(2,4,5-trichlorophenyl)thio]-9H-purin-6-amine], the IC50 is 12000 nM. This counts as double-digit micromolar.
Still for that read-out and setting: as for `COc1cc(Sc2nc3c(N)ncnc3n2CCc2ccccc2Cl)c(OC)cc1Cl` [Example 260, 8-[(4-Chloro-2,5-dimethoxyphenyl)thio]-9-[2-(2-chlorophenyl)ethyl]-9H-purin-6-amine], the figure is 1500 nM.
